This is an account of results in ChEMBL document CHEMBL4831514, “Novel betulin dicarboxylic acid ester derivatives as potent antiviral agents: Design, synthesis, biological evaluation, structure-activity relationship and in-silico study” (Eur J Med Chem, 2021).

In this assay the test system is Vesicular stomatitis virus. Kind of assay: Antiviral activity against Vesicular stomatitis virus Indiana infected in A549 cells assessed as inhibition of viral adsorption at early stage of replication treated for 1 hr during viral infection followed by replacement with fresh medium and measured after 48 hrs by MTT assay. Format: functional, organism-based.

Calls of active or inactive are those of the source. The rule behind the calls is not given here.

Regarding `C=C(C)[C@@H]1CC[C@]2(COC(=O)CCCCCCCCCC(=O)O)CC[C@]3(C)[C@H](CC[C@@H]4[C@@]5(C)CC[C@H](O)C(C)(C)[C@@H]5CC[C@]43C)[C@@H]12`, the outcome was inactive.
As for `C=C(C)[C@@H]1CC[C@]2(COC(=O)CCCC(=O)O)CC[C@]3(C)[C@H](CC[C@@H]4[C@@]5(C)CC[C@H](O)C(C)(C)[C@@H]5CC[C@]43C)[C@@H]12`, the entry is “inactive”; as for `C#CCNC(=O)CCC(=O)OC[C@]12CC[C@@H](C(=C)C)C1[C@H]1CC[C@@H]3[C@@]4(C)CC[C@H](O)C(C)(C)[C@@H]4CC[C@@]3(C)[C@]1(C)CC2` (single isomer, unassigned), “inactive”; as for `C#CC1(NC(=O)CCCCCCCCCC(=O)OC[C@]23CC[C@@H](C(=C)C)[C@@H]2[C@H]2CCC4[C@@]5(C)CC[C@H](O)C(C)(C)[C@@H]5CC[C@@]4(C)[C@]2(C)CC3)CCCCC1` (single isomer, unassigned), “inactive”.
Consider `C=C(C)[C@@H]1CC[C@]2(COC(=O)/C=C(\C)C(=O)N3CCSCC3)CC[C@]3(C)[C@H](CC[C@@H]4[C@@]5(C)CC[C@H](O)C(C)(C)[C@@H]5CC[C@]43C)[C@@H]12`, for which the result was inactive.
Regarding `C#CC1(NC(=O)c2ccccc2C(=O)OC[C@]23CC[C@@H](C(=C)C)[C@@H]2[C@H]2CC[C@@H]4[C@@]5(C)CC[C@H](O)C(C)(C)[C@@H]5CC[C@@]4(C)[C@]2(C)CC3)CCCCC1`, the outcome was inactive.
As for `C#CCNC(=O)CCCC(=O)OC[C@]12CC[C@@H](C(=C)C)[C@@H]1[C@H]1CC[C@@H]3[C@@]4(C)CC[C@H](O)C(C)(C)[C@@H]4CC[C@@]3(C)[C@]1(C)CC2`, the entry is “inactive”; as for `C=C(C)[C@@H]1CC[C@]2(COC(=O)c3ccccc3C(=O)N3CCSCC3)CC[C@]3(C)[C@H](CC[C@@H]4[C@@]5(C)CC[C@H](O)C(C)(C)[C@@H]5CC[C@]43C)[C@@H]12`, “inactive”.
The value for `C=C(C)[C@@H]1CC[C@]2(COC(=O)CCCC(=O)N3CCSCC3)CC[C@]3(C)[C@H](CC[C@@H]4[C@@]5(C)CC[C@H](O)C(C)(C)[C@@H]5CC[C@]43C)[C@@H]12` was “inactive”; that for `C#CC1(NC(=O)c2cccc(C(=O)OC[C@]34CC[C@@H](C(=C)C)[C@@H]3[C@H]3CC[C@@H]5[C@@]6(C)CC[C@H](O)C(C)(C)[C@@H]6CC[C@@]5(C)[C@]3(C)CC4)c2)CCCCC1` was “inactive”.
The value for `C=C(C)[C@@H]1CC[C@]2(COC(=O)CSCC(=O)O)CC[C@]3(C)[C@H](CC[C@@H]4[C@@]5(C)CC[C@H](O)C(C)(C)[C@@H]5CC[C@]43C)[C@@H]12` was “inactive”; that for `C=C(C)[C@@H]1CC[C@]2(CO)CC[C@]3(C)[C@H](CC[C@@H]4[C@@]5(C)CC[C@H](O)C(C)(C)[C@@H]5CC[C@]43C)[C@@H]12` [BETULIN] was “inactive”.
As to `C=C(C)[C@@H]1CC[C@]2(COC(=O)/C=C(\C)C(=O)N3CCOCC3)CC[C@]3(C)[C@H](CC[C@@H]4[C@@]5(C)CC[C@H](O)C(C)(C)[C@@H]5CC[C@]43C)[C@@H]12`, the result was inactive.
As for `C=C(C)[C@@H]1CC[C@]2(COC(=O)/C=C(\C)C(=O)N3CCCCC3)CC[C@]3(C)[C@H](CC[C@@H]4[C@@]5(C)CC[C@H](O)C(C)(C)[C@@H]5CC[C@]43C)[C@@H]12`, the outcome was inactive.
The value for `C#CC1(NC(=O)CCCC(=O)OC[C@]23CCC(C(=C)C)[C@@H]2[C@H]2CC[C@@H]4[C@@]5(C)CC[C@H](O)C(C)(C)[C@@H]5CC[C@@]4(C)[C@]2(C)CC3)CCCCC1` (single isomer, unassigned) was “inactive”; that for `C=C(C)[C@@H]1CC[C@]2(COC(=O)CCC(=O)N3CCSCC3)CC[C@]3(C)[C@H](CC[C@@H]4[C@@]5(C)CC[C@H](O)C(C)(C)[C@@H]5CC[C@]43C)[C@@H]12` was “inactive”.
